Measured values as given in ChEMBL document CHEMBL1201862, “PubChem BioAssay data set” (2004).
Activity calls are given as the source filed them.

Tests used:
[1] = decrease of insulin promoter-GFP reporter – imaging, high-content screening, mouse beta cells (AID 1628); format: functional; details: MIN6
[2] = MIN6 cell viability loss – mouse insulinoma, cytotoxicity control, dose response (AID 2122); format: functional;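 further: confirmatory high-throughput counterscreen run to flag cytotoxic compounds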
H4 = assay: Luminescence Cell-Based Dose Response HTS to Identify Activators of 5'UTR Stem-Loop Driven Prion Protein mRNA Translation in H4 Neuroglioblastoma Cells. [Related pubchem assays: 1829 (Project Summary), 1814 (Primary HTS)]; format: functional; details: Homo sapiens
Large T antigen = Large T antigen (Simian virus 40, UniProt P03070); format: functional, Betapolyomavirus macacae;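 further: Confirmatory-stage PubChem screen for compounds that inhibit SV40 T antigen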
[3] = target: Intestinal-type alkaline phosphatase (Mus musculus, UniProt P24822); assay: PubChem AID 488785; format: functional
[4] = target: T1, Alkaline phosphatase, tissue-nonspecific isozyme (Homo sapiens, UniProt P05186); assay: TNAP enzyme inhibition by screening hits, dose response, selectivity assay for mouse IAP inhibitor project, biochemical, human TNAP, uHTS hits (AID 488906); format: functional
T1 sequence (P05186 whole entry): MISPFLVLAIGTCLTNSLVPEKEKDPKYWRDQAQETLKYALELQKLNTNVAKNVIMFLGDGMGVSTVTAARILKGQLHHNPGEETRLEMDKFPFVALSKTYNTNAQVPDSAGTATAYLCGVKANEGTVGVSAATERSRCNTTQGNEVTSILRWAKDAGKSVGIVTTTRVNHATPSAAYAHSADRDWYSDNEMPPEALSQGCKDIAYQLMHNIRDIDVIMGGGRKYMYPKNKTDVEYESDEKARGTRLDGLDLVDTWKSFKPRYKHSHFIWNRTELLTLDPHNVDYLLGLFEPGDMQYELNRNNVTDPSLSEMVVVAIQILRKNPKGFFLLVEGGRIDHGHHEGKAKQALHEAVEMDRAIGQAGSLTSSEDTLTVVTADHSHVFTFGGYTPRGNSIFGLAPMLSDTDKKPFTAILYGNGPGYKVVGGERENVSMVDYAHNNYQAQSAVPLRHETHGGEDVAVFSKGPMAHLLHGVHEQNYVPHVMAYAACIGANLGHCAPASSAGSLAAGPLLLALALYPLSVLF

[5] = target: Intestinal-type alkaline phosphatase (Homo sapiens, UniProt P09923); assay: inhibition of human intestinal alkaline phosphatase – biochemical, dose response (AID 488876); format: functional
[6] = target: T2, Rac GTPase-activating protein 1 (Homo sapiens, UniProt Q9H0H5); assay: blockers of MgcRacGAP-driven Rac1 GTP hydrolysis – biochemical, ADP Hunter fluorescence, primary and confirmatory, confirmation (AID 624330); format: functional
T2 sequence (Q9H0H5 whole entry): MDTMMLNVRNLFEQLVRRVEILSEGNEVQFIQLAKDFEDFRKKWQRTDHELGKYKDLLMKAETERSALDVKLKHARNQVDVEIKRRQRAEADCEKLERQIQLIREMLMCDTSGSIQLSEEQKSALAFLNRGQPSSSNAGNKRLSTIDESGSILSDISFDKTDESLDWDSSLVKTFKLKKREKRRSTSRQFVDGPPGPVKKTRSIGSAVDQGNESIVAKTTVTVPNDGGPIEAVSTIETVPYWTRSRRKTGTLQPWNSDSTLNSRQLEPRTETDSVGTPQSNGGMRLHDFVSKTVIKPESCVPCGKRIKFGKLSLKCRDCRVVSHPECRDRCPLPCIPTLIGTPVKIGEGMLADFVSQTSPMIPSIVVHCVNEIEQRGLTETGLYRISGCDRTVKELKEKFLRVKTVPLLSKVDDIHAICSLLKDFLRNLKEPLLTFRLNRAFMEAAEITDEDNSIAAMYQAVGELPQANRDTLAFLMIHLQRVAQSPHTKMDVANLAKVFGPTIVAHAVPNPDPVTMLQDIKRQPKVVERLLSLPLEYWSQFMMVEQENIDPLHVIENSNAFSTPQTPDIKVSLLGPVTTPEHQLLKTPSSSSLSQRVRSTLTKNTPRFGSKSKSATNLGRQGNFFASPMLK

Protein Tat = Protein Tat (Human immunodeficiency virus type 1 group M subtype B (isolate HXB2)(HIV-1), UniProt P04608); format: functional;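 further: tat binding to TAR RNA read out by fluorescence polarization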
[7] = viability loss in THP-1 monocytes – THP-1 cells, cytotoxicity control for Vif-APOBEC3G degradation inhibitor project, dose response (AID 1117359); format: functional; details: THP-1
Mu-type opioid receptor [8] = target: T3, Mu-type opioid receptor (Homo sapiens, UniProt P35372); assay: SAR Analysis of Antagonists of the MOR Receptor using an Image-Based Assay - Set 2. [Related pubchem assays (depositor defined):AID1777, AID1785, AID1786, AID1966, AID2133, AID2136, AID2284, AID2285, AID2420]; format: functional
[9] = target: T4, Kappa-type opioid receptor (Homo sapiens, UniProt P41145); assay: SAR analysis of Antagonists of the Kappa Opioid Receptor (KOR) using an Image-Based Assay - Set 2. [Related pubchem assays (depositor defined):AID1777, AID1785, AID1786, AID1966, AID2133, AID2136, AID2284, AID2285, AID2348]; format: functional
Mu-type opioid receptor [10] = target: T3, Mu-type opioid receptor; assay: SAR Analysis of Agonists of the MOR Receptor using an Image-Based Assay - Set 2. [Related pubchem assays (depositor defined):AID1777, AID1785, AID1786, AID1966, AID2133, AID2136, AID2284, AID2285, AID2352]; format: functional
[11] = target: T4, Kappa-type opioid receptor; assay: SAR analysis of small molecule agonists of the kappa opioid receptor via a luminescent beta-arrestin assay - Set 2. [Related pubchem assays (depositor defined):AID1777, AID1785, AID1786, AID1966, AID2133, AID2136, AID2284, AID449737]; format: functional
[12] = target: T5, Delta-type opioid receptor (Homo sapiens, UniProt P41143); assay: SAR Analysis of Agonists of the DOR Receptor using an Image-Based Assay - Set 2. [Related pubchem assays (depositor defined):AID1777, AID1785, AID1786, AID1966, AID2133, AID2136, AID2284, AID2285, AID2370]; format: functional
[13] = target: T5, Delta-type opioid receptor; assay: SAR Analysis of Antagonists of the DOR Receptor using an Image-Based Assay - Set 2. [Related pubchem assays (depositor defined):AID1777, AID1785, AID1786, AID1966, AID2133, AID2136, AID2284, AID2285, AID2357]; format: functional
[14] = target: T4, Kappa-type opioid receptor; assay: SAR analysis of Agonists of the Kappa Opioid Receptor (KOR) using an Image-Based Assay - Set 2. [Related pubchem assays (depositor defined):AID1777, AID1786, AID1966, AID2133, AID2136, AID2284, AID2285, AID2359]; format: functional
[15] = target: Voltage-dependent T-type calcium channel subunit alpha-1H (Homo sapiens, UniProt O95180); assay: inhibition of CACNA1H calcium flux – cell-based, SynthLib3 library, HEK293 Cav3.2, fluorescence (AID 493041); format: functional
Estrogen receptor = target: T6, Estrogen receptor (Homo sapiens, UniProt P03372);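 further: potency for inhibiting coactivator peptide recruitment to the receptor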
T6 sequence (P03372 whole entry): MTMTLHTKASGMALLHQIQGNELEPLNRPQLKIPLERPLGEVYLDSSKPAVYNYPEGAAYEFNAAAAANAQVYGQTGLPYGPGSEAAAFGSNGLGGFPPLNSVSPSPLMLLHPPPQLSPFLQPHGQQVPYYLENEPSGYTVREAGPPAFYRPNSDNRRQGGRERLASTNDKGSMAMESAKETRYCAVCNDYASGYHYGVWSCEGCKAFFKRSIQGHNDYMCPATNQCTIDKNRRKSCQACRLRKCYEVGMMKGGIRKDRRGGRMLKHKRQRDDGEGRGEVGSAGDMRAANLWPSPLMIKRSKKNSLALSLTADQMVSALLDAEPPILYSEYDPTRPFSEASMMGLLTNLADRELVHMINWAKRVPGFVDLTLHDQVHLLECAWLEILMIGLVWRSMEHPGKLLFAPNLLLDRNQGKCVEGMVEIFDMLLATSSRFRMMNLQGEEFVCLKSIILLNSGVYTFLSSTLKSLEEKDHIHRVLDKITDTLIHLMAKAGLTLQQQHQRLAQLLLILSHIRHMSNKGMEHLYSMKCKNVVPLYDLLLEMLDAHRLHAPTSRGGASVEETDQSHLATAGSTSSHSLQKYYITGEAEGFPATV

Trypsin = Trypsin (Sus scrofa, UniProt P00761); assay: trypsin protease activity blockade – biochemical, quenched peptide fluorescence, cherry-pick, selectivity assay for Rce1 protease inhibitor project, dose response (AID 488789)
CAAX prenyl protease 1 = CAAX prenyl protease 1 (Saccharomyces cerevisiae S288c, UniProt P47154); assay: yeast CAAX protease Ste24 inhibition – biochemical, S. cerevisiae, plate reader, cherry-pick, dose response (AID 488815)
BJ [16] = assay: BJ-TERT fibroblast viability loss – cell-based, RAS-independent, luminescence, dose response (AID 1933); format: functional; details: Homo sapiens
BJ [17] = assay: BJ-TERT-LT-ST fibroblast viability loss – cell-based, RAS-independent, luminescence, dose response (AID 1935); format: functional; details: Homo sapiens;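 further: BJ fibroblasts immortalized with TERT plus LT and ST oncogenes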
[18] = DRD fibroblast viability loss – cell-based, non-viral oncogenic, luminescence, dose response (AID 1934); format: functional; details: Homo sapiens
Exodeoxyribonuclease V = Exodeoxyribonuclease V (Escherichia coli (strain K12), UniProt P04993+P07648+P08394); assay: RecBCD inhibition via phage-restricted bacterial growth – absorbance, V66 E. coli, mutant T4 phage, counter-screen for AddAB inhibitor project, dose response (AID 492957); format: functional, cell-based, Escherichia coli str. K-12 substr. MG1655
[19] = Counterscreen for AddAB inhibitors: absorbance-based bacterial cell-based high throughput dose response assay for inhibitors of bacterial viability. [Related pubchem assays (depositor defined):AID435030, AID449728, AID449731, AID488942, AID488955, AID488956]; format: functional
Vero = assay: cells; format: functional; details: Chlorocebus sabaeus
Cytochrome P450 1A2 = target: T7, Cytochrome P450 1A2 (Homo sapiens, UniProt P05177);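 further: PubChem cytochrome P450 panel assay, CYP1A2 panel member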
T7 sequence (P05177 whole entry): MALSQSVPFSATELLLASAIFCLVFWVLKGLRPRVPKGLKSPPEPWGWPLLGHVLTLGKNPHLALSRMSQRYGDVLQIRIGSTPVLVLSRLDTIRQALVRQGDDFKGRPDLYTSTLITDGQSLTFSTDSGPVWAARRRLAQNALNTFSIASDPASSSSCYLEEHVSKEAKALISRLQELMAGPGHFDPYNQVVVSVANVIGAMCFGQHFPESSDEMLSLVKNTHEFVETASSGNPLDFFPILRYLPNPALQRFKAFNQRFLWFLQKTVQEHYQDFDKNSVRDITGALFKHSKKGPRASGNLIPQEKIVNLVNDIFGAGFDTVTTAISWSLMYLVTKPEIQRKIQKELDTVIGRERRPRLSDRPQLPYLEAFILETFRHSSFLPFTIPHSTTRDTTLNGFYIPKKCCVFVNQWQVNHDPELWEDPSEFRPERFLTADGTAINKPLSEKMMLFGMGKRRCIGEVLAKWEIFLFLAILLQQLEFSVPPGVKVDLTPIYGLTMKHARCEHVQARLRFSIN

T4 sequence (P41145 whole entry): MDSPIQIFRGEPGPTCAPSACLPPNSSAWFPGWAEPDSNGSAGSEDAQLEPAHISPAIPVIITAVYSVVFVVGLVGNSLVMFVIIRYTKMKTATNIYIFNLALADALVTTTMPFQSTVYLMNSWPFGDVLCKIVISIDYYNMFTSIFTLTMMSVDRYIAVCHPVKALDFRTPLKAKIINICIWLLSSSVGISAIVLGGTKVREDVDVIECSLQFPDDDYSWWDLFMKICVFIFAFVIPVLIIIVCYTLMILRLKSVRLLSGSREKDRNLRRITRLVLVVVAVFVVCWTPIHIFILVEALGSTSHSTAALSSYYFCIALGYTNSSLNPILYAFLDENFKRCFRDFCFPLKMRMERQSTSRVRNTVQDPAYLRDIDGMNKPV
T5 sequence (P41143 whole entry): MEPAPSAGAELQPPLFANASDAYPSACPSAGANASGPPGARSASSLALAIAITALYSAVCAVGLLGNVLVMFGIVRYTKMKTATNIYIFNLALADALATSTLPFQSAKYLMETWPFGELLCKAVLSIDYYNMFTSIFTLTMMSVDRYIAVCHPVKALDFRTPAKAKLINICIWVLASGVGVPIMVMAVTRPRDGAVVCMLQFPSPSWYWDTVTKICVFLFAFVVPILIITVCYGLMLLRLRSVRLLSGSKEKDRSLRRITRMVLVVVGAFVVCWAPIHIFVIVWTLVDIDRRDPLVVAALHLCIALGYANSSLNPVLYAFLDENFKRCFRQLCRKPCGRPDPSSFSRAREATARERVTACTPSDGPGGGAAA
T3 sequence (P35372 whole entry): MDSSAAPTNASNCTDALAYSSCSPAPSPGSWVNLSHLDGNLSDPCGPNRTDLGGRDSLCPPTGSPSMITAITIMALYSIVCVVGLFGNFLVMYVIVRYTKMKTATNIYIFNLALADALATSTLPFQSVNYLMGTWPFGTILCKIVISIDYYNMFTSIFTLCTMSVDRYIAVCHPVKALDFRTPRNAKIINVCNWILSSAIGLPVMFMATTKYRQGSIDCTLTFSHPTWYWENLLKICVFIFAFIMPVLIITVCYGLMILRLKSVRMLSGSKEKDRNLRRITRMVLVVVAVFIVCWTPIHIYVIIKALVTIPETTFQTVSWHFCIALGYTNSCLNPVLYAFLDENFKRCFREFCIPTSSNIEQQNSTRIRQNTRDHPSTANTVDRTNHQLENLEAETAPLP
Exodeoxyribonuclease V, sequence (P04993 whole entry): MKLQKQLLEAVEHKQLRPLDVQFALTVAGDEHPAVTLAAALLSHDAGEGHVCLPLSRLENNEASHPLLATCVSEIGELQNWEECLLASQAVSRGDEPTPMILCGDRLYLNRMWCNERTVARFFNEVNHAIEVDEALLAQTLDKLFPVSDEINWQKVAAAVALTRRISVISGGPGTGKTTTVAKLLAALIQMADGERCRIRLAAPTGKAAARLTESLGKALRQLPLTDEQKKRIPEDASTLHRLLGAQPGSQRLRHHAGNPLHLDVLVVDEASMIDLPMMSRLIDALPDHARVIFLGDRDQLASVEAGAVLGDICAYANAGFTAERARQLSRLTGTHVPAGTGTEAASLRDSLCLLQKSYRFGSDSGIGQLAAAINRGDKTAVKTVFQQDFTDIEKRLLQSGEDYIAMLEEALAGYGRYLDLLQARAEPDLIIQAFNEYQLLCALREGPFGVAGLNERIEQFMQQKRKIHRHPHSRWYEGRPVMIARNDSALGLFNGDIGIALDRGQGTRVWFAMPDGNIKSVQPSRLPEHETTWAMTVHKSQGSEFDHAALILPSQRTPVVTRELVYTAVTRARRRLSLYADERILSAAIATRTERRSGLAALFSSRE
Exodeoxyribonuclease V, sequence (P07648 whole entry): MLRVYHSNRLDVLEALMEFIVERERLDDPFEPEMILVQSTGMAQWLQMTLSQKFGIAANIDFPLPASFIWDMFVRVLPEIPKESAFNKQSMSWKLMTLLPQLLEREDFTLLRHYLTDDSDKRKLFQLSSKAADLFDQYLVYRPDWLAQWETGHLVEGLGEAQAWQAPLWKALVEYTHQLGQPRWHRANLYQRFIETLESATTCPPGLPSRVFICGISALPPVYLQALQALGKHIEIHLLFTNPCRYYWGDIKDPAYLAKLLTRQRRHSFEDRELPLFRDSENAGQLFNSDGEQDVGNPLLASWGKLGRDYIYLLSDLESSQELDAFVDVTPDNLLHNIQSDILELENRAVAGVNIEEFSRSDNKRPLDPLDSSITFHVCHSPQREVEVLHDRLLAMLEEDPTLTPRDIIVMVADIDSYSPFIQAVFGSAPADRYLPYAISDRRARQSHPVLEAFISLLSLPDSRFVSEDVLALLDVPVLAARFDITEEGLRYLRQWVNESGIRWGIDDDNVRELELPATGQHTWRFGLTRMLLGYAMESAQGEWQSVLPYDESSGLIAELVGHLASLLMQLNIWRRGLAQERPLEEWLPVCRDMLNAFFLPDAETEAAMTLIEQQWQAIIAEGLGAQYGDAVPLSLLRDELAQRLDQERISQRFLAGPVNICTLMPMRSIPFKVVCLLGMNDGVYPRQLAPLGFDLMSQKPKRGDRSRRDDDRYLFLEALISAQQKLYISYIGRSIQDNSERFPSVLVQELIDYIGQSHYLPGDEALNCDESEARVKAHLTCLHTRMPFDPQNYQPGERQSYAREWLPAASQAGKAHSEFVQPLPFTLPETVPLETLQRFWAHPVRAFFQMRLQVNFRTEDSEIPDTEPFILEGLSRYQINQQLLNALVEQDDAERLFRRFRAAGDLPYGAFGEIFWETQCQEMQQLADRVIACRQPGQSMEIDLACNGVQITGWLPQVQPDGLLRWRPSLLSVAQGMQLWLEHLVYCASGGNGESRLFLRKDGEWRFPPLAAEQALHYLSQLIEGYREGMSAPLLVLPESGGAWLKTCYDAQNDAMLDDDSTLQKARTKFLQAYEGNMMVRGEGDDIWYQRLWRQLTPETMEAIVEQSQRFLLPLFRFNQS
Exodeoxyribonuclease V, sequence (P08394 whole entry): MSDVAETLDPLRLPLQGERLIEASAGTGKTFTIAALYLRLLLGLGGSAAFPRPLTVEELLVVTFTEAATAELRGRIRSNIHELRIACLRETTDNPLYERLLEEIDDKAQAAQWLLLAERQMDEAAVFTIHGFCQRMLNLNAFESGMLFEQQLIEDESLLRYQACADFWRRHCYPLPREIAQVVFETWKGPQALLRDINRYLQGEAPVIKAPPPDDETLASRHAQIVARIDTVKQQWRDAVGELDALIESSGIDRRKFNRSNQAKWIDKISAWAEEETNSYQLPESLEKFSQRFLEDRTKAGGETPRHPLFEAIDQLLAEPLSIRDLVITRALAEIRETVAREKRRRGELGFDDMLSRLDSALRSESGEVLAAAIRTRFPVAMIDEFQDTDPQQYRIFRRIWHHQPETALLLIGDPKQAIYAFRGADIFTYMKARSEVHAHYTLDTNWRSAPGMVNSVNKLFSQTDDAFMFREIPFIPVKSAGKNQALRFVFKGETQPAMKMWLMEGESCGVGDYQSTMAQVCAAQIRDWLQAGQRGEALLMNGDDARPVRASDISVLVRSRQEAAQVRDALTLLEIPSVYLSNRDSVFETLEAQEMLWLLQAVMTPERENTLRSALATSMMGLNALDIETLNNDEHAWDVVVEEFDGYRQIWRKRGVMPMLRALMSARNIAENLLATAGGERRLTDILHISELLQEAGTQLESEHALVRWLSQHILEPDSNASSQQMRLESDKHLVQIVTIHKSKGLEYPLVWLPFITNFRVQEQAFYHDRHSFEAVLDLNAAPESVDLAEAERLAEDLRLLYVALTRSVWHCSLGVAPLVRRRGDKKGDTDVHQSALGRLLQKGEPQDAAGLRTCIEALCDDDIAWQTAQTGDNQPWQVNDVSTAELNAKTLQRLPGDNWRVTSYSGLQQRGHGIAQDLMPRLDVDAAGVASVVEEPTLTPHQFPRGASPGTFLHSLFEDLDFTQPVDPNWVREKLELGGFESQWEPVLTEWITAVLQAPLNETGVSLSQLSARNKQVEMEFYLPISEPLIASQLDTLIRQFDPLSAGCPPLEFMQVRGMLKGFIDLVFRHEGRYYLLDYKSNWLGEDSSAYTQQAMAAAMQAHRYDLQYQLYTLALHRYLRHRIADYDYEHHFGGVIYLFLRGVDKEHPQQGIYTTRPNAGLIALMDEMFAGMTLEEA
Intestinal-type alkaline phosphatase (Mus musculus, UniProt P24822), sequence (P24822 whole entry): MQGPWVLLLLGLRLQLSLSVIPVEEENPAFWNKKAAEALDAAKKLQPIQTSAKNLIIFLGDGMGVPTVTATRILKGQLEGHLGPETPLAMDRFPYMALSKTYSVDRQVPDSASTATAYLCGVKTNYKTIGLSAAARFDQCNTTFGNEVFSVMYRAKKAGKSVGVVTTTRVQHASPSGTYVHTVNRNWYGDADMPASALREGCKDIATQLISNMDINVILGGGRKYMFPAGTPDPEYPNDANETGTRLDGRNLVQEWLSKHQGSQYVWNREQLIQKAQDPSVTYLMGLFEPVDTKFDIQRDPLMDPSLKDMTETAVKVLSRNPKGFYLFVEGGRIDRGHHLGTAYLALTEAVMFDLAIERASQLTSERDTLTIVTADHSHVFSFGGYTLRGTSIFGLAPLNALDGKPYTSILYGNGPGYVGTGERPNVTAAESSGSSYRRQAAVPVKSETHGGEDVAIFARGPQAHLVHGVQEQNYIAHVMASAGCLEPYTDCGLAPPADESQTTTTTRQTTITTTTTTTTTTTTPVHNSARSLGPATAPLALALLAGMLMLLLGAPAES
Protein Tat, sequence (P04608 whole entry): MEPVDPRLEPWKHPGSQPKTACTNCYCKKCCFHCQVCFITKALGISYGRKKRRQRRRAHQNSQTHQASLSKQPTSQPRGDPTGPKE
Trypsin, sequence (P00761 whole entry): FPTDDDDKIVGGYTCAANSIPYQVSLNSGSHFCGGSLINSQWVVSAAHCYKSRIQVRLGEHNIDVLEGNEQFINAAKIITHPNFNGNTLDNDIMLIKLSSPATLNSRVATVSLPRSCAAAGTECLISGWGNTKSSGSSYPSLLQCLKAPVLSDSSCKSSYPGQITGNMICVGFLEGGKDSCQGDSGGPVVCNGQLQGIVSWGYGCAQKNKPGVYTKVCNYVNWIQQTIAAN

## C/N=c1\scc(-c2ccco2)n1/N=C/c1ccc(O)c(O)c1
[1]
  IC50: 6.81 µM (active)
[2]
  IC50: 3.56 µM (active)
H4
  EC50: 70.2 µM (active)
Large T antigen
  IC50: 25.5 µM (active)
[3]
  IC50: 1.7 µM (active)
[4]
  IC50: 29.7 µM (active)
[5]
  IC50: 13.4 µM (active)
[6]
  IC50: 30.3 µM (active)
Protein Tat
  IC50: > 100 µM (active)
[7]
  CC50: 9.16 µM (active)

## Brc1ccc(CSc2nnc(-c3ccccn3)n2Cc2cccs2)cc1
Mu-type opioid receptor [8]
  IC50: > 32 µM (inactive)
[9]
  IC50: > 32 µM (inactive)
Mu-type opioid receptor [10]
  EC50: > 32 µM (inactive)
[11]
  EC50: 1.85 µM (active)
[12]
  EC50: > 32 µM (inactive)
[13]
  IC50: > 32 µM (inactive)
[14]
  EC50: 1.1 µM (active)

## CC(C)CCN1C[C@@H]2C(CNC(=O)c3cc(Cl)cc(Cl)c3)[C@@H]2C1 (stereo partly drawn)
[15]
  EC50: 1.9 µM (active)

## O=C(CSc1n[nH]c(-c2ccc(S(=O)(=O)N3CCCCC3)cc2)n1)Nc1nccs1
Estrogen receptor
  IC50: 47.2 µM (not active)
Trypsin
  AC50: 21.3 µM (active)
CAAX prenyl protease 1
  AC50: 8.82 µM (active)

## O=Nc1ccc(O)c2ncccc12
BJ [16]
  EC50: 12.9 µM (active)
BJ [17]
  EC50: 8.73 µM (active)
[18]
  EC50: 8.56 µM (active)
Exodeoxyribonuclease V
  IC50: > 119 µM (inactive)
[19]
  IC50: 35.6 µM (inactive)
Vero
  CC50: 9.69 µM (active)

## Nc1ncnc2c1ncn2[C@H]1O[C@@H](C(=O)OCCO)[C@@H](O)[C@H]1O
Cytochrome P450 1A2
  AC50: inconclusive
